Test results published in patent US10548894B2, “Combination therapy” (Array BioPharma Inc., priority 2013, dated 2020).

How the values were obtained:
[1] = test system: six melanoma T1799 mutant BRAF cell lines; experiment: CellTiter-Glo proliferation assay, panel summary; format: cell-based; conditions: absence of FGF2, read-out: IC50 values, range over cell lines
Protocol: (§1) All cell lines were purchased from ATTC (SK-MEL-5, SK-MEL-24, UACC-62, COLO 741, COLO-800, WM-266-4, Colo205, LS411N, SW 1417), ECACC (MDST8), DSMZ (CL-34) and NCI (LOX IMVI). […] Cell lines were cultured in 37° C. and 5% CO2 incubator and expanded in T-75 flasks. In all cases cells were thawed from frozen stocks, expanded through passage using 1:3 dilutions, counted and assessed for viability using a ViCell counter (Beckman-Coulter), prior to plating in 96-well or 6-well plates. To split and expand cell lines, cells were dislodged from flasks using 0.25% Trypsin-EDTA (GIBCO, Catalog number 25200). All cell lines were determined to be free of mycoplasma contamination as determined by a PCR detection methodology performed at Idexx Radii (Columbia, Mo., USA) and correctly identified by detection of a panel of SNPs. […]
(§2) For CellTiter-Glo™ assays, cells were dispensed into tissue culture treated 96-well plates (Costar, catalog number 3904) with a final volume of 80 μL of medium and at density of 3000 cells per well. […] Plates were incubated for 72 hrs and the effects of compounds on cell proliferation was determined using the CellTiter-Glo™ Luminescent Cell Viability Assay (CTG, Promega) and a Victor™ X4 plate reader (Perkin Elmer). […] Cells were continuously monitored every two hours for seven days with the xCELLigence real-time impedance based cell analyzer. […]

[2] = test system: five CRC-derived T1799 mutant BRAF cell lines; experiment: CellTiter-Glo proliferation assay, panel summary; format: cell-based; conditions: absence of FGF2, read-out: IC50 values, range over cell lines
Protocol: as §1, §2

[3] = Clinical dose finding and tolerability (RP2D/MTD) in patients; format: in vivo
Text: The selection of the starting dose follows the ICH S9 guidelines for choosing a starting a dose for a first-in-human trial conducted in patients with cancer, and is shown in Table 6-2.
Table 3 describes the starting doses and the provisional dose levels of study treatments for the combinations that may be evaluated during this trial. Additional dose levels not currently specified may be enrolled and additional patients may be enrolled at a dose level already tested if such changes are deemed necessary to provide optimal safety and tolerability, pharmacokinetic, and pharmacodynamic data.

OUMS-23 = experiment: 72 hr cell titer Glo proliferation assay, BRAFV600E mutant CRC cell lines; format: cell-based; conditions: OUMS-23 (PTEN loss), single agent
Protocol: (§3) Single agent and combinatorial effects on proliferation of inhibitors of RAF (Compound of Formula (I)) and PIK3Ca (Compound X) kinases in seven BRAF-mutant CRC-derived cell lines. All cell lines express the BRAFV600E protein. Cells harboring known or putative activating mutations in the PI3Kα gene are marked with a (*) and cells with PTEN loss marked with a (#). Cell proliferation was measured in 72 hr cell titer Glo™ assays and all results supplied are the result of at least triplicate measurements. Shown are single agent IC50 values for the Compound of Formula (I) and Compound X. Synergy score (SS) measurements as well as the combination index (C150) at the 50% effect level are given for each combination) in Table 6. Interactions were deemed synergistic when SS values were ≥2.0 and CI values were ≤0.5. Interactions were deemed additive/synergistic when either SS values were ≥2.0 but CI values were >0.5 or SS values were <2.0 but CI values were ≤0.5. Interactions where termed additive when SS values were <2.0 and CI values were >0.5. Synergy calls are given in the “effect description” columns.

CL-34 = experiment: as above; format: cell-based; conditions: CL-34, single agent
Protocol: as §3

Structure (SMILES): COC(=O)N[C@@H](C)CNc1nccc(-c2cn(C(C)C)nc2-c2cc(Cl)cc(NS(C)(=O)=O)c2F)n1 [Compound of Formula (I)]
- IC50 [1]: 3 to 470 nM
- IC50 [2]: 4 to 185 nM
- observed adverse events ([3]; in clinic, tested at up to 700 mg QD): reversible and manageable
- RP2D (recommended phase II dose) ([3]; single agent, patients): 450 mg QD
- IC50 (OUMS-23): > 2700 nM
- IC50 (CL-34): 30 nM
